Consider one compound from patent publication US11752088B2, “Highly concentrated seawater mineral extract and uses thereof” (Oriel Seasalt Company Limited, priority 2015, dated 2023).

This experiment can be described thus: Flow Mediated Dilation (FMD) test. The note with it: in vivo.

With `O=[N+]([O-])OCC(CO[N+](=O)[O-])O[N+](=O)[O-]` [Nitroglycerin], the FMD reading was determined as 10 % FMD and the blood vessel diameter came out at 5.3 mm.
